The record followed here is patent publication US20240400553A1, “AMINE BASED MATRIPTASE 2 INHIBITORS AND USES THEREOF” (Disc Medicine, Inc., priority 2023, published 2024).

pKi: −log10 of the molar value.

One assay concerns the target T1, Human Recombinant Matriptase 2 (Homo sapiens, UniProt Q8IU80).
T1 construct: made in house
T1 sequence (Q8IU80 1-811): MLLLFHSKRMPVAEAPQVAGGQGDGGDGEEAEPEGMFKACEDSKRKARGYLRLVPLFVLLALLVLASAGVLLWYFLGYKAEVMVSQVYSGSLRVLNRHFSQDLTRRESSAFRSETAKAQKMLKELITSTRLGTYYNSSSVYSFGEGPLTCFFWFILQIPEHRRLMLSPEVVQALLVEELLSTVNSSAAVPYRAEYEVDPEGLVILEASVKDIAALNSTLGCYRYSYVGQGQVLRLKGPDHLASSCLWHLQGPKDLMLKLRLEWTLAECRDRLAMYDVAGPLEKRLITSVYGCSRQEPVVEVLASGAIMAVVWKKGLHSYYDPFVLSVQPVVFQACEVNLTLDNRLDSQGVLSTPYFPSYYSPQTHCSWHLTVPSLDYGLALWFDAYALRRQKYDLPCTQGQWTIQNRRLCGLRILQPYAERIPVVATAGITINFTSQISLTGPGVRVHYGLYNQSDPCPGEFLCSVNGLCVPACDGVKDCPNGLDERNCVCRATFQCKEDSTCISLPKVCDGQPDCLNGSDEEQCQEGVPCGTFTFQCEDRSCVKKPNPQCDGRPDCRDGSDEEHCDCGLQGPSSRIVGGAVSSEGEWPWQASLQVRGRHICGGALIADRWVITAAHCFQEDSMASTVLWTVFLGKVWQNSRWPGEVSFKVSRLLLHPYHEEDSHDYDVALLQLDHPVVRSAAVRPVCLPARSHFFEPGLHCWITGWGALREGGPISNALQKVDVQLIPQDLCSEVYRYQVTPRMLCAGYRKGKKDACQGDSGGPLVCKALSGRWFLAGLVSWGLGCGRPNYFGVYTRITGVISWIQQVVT
The assay can be described thus: Matriptase 2 inhibition, fluorescence based assay (Method I). As to conditions: Table A; Ki of Matriptase-2; read-out: Mat-2 Ki. Type of assay: biochemical. The method, then:
• Method I: Test compounds were evaluated for their potential to inhibit Human Recombinant Matriptase 2 (in-house) using fluorescence based assay. The concentration of Recombinant Matriptase 2 and the substrate used in the assay was: 3.5 nM (In-house Matriptase 2) and 62 μM (Boc-Gln-Ala-Arg-7-amido-4-methyl coumarin hydrobromide −Cat log: I-1550 from Bachem) respectively. The assay buffer used was 50 mM TRIS pH 7.5, 150 mM NaCl, 0.01% Gelatin TCL059 Himedia). The assay was performed using 384 well black flat bottom plate from grenier (Cat log: 781076) at 25° C. The enzyme and compound were preincubated for 30 mins, the plate was read at 60 mins after substrate addition at wavelength Ex: 360/Em: 480 nm. The final assay volume was 20 μl. A stock solution of compounds was initially prepared in DMSO and appropriate dilutions were made and IC50 was determined for all the compounds (final DMSO conc in the assay was 1%). All the measurements were carried out using the Spectramax M5, Molecular devices.
To determine Ki values, dose response curves were generated by plotting percentage inhibition as a function of inhibitor concentration and the data was fitted to sigmoidal non-linear regression equation (variable slope) using Graph Pad prism software V8.
The term pKi denotes the negative decadic logarithm of the Ki, by convention in mol/L. Consider `Cn1ccc(COC(=O)c2cc3ccc(CN)nc3n2Cc2cc(NS(=O)(=O)Cc3ccccc3)cc3ccccc23)n1` [Compound 61, (1-methyl-1H-pyrazol-3-yl)methyl 6-(amino-methyl)-1-{[3-(phenyl-methanesulfonamido)-naphthalen-1-yl]methyl}-1H-pyrrolo[2,3-b]pyr-idine-2-carboxylate], for which the pKi was at least 7.00.
As for `CN1CCC(COC(=O)c2cc3ccc(CN)nc3n2Cc2cc(NS(=O)(=O)CC[C@@H]3CCCN3)cc3ccccc23)CC1` [Compound 2], the negative-log Ki (pKi) was 5.52 to 6.30.
For the compound `NCc1ccc2cc(C(=O)O)n(Cc3cc(NS(=O)(=O)[C@H](F)c4ccccc4)cc4ccccc34)c2n1` (racemic) [Compound 98, 6-(aminomethyl)-1-({3-[fluoro(phenyl)methane-sulfonamido]naphthalen-1-yl}methyl)-1H-pyr-rolo[2,3-b]pyridine-2-carboxylic acid], the pKi was 6.30 to 7.00.
As to `CC(=O)O[C@H](C)OC(=O)c1cc2ccc(CN)nc2n1Cc1cc(NS(=O)(=O)Cc2ccccc2)cc2ccccc12` (racemic) [Compound 89, 1-[6-(aminomethyl)-1-{[3-(phenylmethanesul-fonamido)naphthalen-1-yl]methyl}-1H-pyrrolo-[2,3-b]pyridine-2-carbon-yloxy]ethyl acetate], the pKi is 6.30 to 7.00.
With `CC(C)(C)n1ccc(COC(=O)c2cc3ccc(CN)nc3n2Cc2cc(NS(=O)(=O)Cc3ccccc3)cc3ccccc23)n1` [Compound 106, (1-tert-butyl-1H-pyrazol-3-yl)methyl 6-(amino-methyl)-1-{[3-(phenyl-methanesulfonamido)-naphthalen-1-yl]methyl}-1H-pyrrolo[2,3-b]pyr-idine-2-carboxylate], the negative logarithm of the Ki (pKi) is 6.30 to 7.00.
As for `CN1CCC(CCNC(=O)c2cc3ccc(CN)nc3n2Cc2cc(NS(=O)(=O)Cc3ccccc3)cc3ccccc23)CC1` [Compound 44, 6-(aminomethyl)-N-[2-(1-methylpiperidin-4-yl)ethyl]-1-{[3-(phenyl-methanesulfonamido)-naphthalen-1-yl]methyl}-1H-pyrrolo[2,3-b]pyr-idine-2-carboxamide], the pKi was at least 7.00.
In the case of `CN(C)CCCOC(=O)c1cc2ccc(CN)nc2n1Cc1cc(NS(=O)(=O)Cc2ccccc2)cc2ccccc12` [Compound 47, 3-(dimethylamino)prop-yl 6-(aminomethyl)-1-{[3-(phenylmethane-sulfonamido)naphthalen-1-yl]methyl}-1H-pyr-rolo[2,3-b]pyridine-2-carboxylate], the pKi is at least 7.00.
Consider `CN1CCN(C)[C@@H](COC(=O)c2cc3ccc(CN)nc3n2Cc2cc(NS(=O)(=O)Cc3ccccc3)cc3ccccc23)C1` (racemic) [Compound 51, (1,4-dimethylpiperazin-2-yl)methyl 6-(amino-methyl)-1-{[3-(phenyl-methanesulfonamido)-naphthalen-1-yl]methyl}-1H-pyrrolo[2,3-b]pyr-idine-2-carboxylate], for which the pKi was at least 7.00.
With `N#Cc1ccc(OC(=O)c2cc3ccc(CN)nc3n2Cc2cc(NS(=O)(=O)Cc3ccccc3)cc3ccccc23)cc1` [Compound 125, 4-cyanophenyl 6-(aminomethyl)-1-{[3-(phenylmethanesulfon-amido)naphthalen-1-yl]-methyl}-1H-pyrrolo-[2,3-b]pyridine-2-car-boxylate], the pKi is 5.52 to 6.30.
Turning to `Cc1cscc1CS(=O)(=O)Nc1cc(Cn2c(C(=O)OCC3CCN(C)CC3)cc3ccc(CN)nc32)c2ccccc2c1` [Compound 163, (1-methylpiperidin-4-yl)-methyl 6-(aminomethyl)-1-({3-[(4-methylthio-phen-3-yl)methanesul-fonamido]naphthalen-1-yl}methyl)-1H-pyrrolo-[2,3-b]pyridine-2-car-boxylate], the pKi is at least 7.00.
On to `Cc1nccn1CCOC(=O)c1cc2ccc(CN)nc2n1Cc1cc(NS(=O)(=O)Cc2ccccc2)cc2ccccc12` [Compound 140, 2-(2-methyl-1H-imid-azol-1-yl)ethyl 6-(amino-methyl)-1-{[3-(phenyl-methanesulfonamido)-naphthalen-1-yl]methyl}-1H-pyrrolo[2,3-b]pyr-idine-2-carboxylate], for which the negative logarithm of the Ki (pKi) was 6.30 to 7.00.

Still in this assay, the particulars now being: Table A; Ki of Matriptase-2 given as class symbols; read-out: Mat-2 Ki.
Take `NCc1ccc2cc(-c3nnc(N)o3)n(Cc3cc(NS(=O)(=O)Cc4ccccc4)cc4ccccc34)c2n1` [Compound 348, N-(4-{[2-(5-amino-1,3,4-oxadiazol-2-yl)-6-(amino-methyl)-1H-pyrrolo[2,3-b]pyridin-1-yl]methyl}-naphthalen-2-yl)-1-phen-ylmethanesulfonamide]: the pKi was at least 7.00.
Same read-out and setting: then `NCc1ccc2cc(CO)n(Cc3cc(NS(=O)(=O)Cc4ccccc4)cc4ccccc34)c2n1` [Compound 365, N-(4-((6-(aminomethyl)-2-(hydroxymethyl)-1H-pyrrolo[2,3-b]pyridin-1-yl)methyl)naphthalen-2-yl)-1-phenylmethanesulfonamide], with 5.52 to 6.30.
For the compound `Cc1cccc(C)c1CS(=O)(=O)Nc1cc(Cn2c(C(=O)OCCC3CCN(C)CC3)cc3ccc(CN)cc32)c2ccccc2c1` [Compound 377, 2-(1-methylpiperidin-4-yl)ethyl 6-(aminometh-yl)-1-({3-[(2,6-dimethyl-phenyl)methanesulfon-amido]naphthalen-1-yl}-methyl)-1H-indole-2-carboxylate], the pKi is at least 7.00.
On the same count and under the same terms, the figure for `N#Cc1cccc(CS(=O)(=O)Nc2cc(Cn3c(C(=O)O)cc4ccc(CN)nc43)c3ccccc3c2)c1` [Compound 218, 6-(aminomethyl)-1-({3-[(3-cyanophenyl)meth-anesulfonamido]naph-thalen-1-yl}methyl)-1H-pyrrolo[2,3-b]pyridine-2-carboxylic acid] is 6.30 to 7.00.
On to `NCc1ccc2cc(C(=O)O)n(Cc3cc(NS(=O)(=O)[C@@H]4CCOC4)cc4ccccc34)c2n1` [Compound 276], for which the pKi was 5.52 to 6.30.
Turning to `NCc1ccc2cc(C(=O)O)n(Cc3cc(NS(=O)(=O)Cc4cccnc4)cc4ccccc34)c2n1` [Compound 242, 6-(aminomethyl)-1-({3-[(pyridin-3-yl)methane-sulfonamido]naphthalen-1-yl}methyl)-1H-pyr-rolo[2,3-b]pyridine-2-carboxylic acid], the pKi was 6.30 to 7.00.
Regarding `NCc1ccc2cc(C(=O)O)n(Cc3cc(NS(=O)(=O)CCCn4cnnn4)cc4ccccc34)c2n1` [Compound 264, 6-(aminomethyl)-1-({3-[3-(1H-1,2,3,4-tetrazol-1-yl)propanesulfonamido]-naphthalen-1-yl}methyl)-1H-pyrrolo[2,3-b]pyr-idine-2-carboxylic acid], the pKi is 6.30 to 7.00.
With `CN(C)CCOC(=O)c1cc2ccc(CN)nc2n1Cc1cc(NS(=O)(=O)CC2CCNCC2)cc2ccccc12` [Compound 271, 2-(dimethylamino)ethyl 6-(aminomethyl)-1-({3-[(piperidin-4-yl)meth-anesulfonamido]naph-thalen-1-yl}methyl)-1H-pyrrolo[2,3-b]pyridine-2-carboxylate], the negative-log Ki (pKi) is 5.52 to 6.30.
Turning to `NCc1ccc2cc(C(=O)O)n(Cc3cc(NC(=O)NCC4CCN(S(=O)(=O)C5CC5)CC4)cc4ccccc34)c2n1` [Compound 292, 6-(aminomethyl)-1-({3-[({[1-(cyclopropanesul-fonyl)piperidin-4-yl]-methyl}carbamoyl)-amino]naphthalen-1-yl}-methyl)-1H-pyrrolo[2,3-b]pyridine-2-carboxylic acid], the pKi is 6.30 to 7.00.
As to `Cc1cccc(C)c1CS(=O)(=O)Nc1cc(Cn2c(C(=O)OCC3CCN(C)CC3)cc3ccc(CN)cc32)c2ccccc2c1` [Compound 375, (1-methylpiperidin-4-yl)-methyl 6-(aminomethyl)-1-({3-[(2,6-dimethyl-phenyl)methanesulfon-amido)naphthalen-1-yl}-methyl)-1H-indole-2-carboxylate], the pKi was at least 7.00.

Still in this assay, the particulars now being: Table B; Human Recombinant Matriptase 2, 3.5 nM enzyme, 62 μM substrate, 30 mins preincubation; read-out: Mean Ki.
Take `CN(C)C12CC(COC(=O)c3cc4ccc(CN)nc4n3Cc3cc(NS(=O)(=O)Cc4ccccc4)cc4ccccc34)(C1)C2` [Compound 2.40]: the pKi is at least 7.00.
Still for that read-out and setting: then `CN1CCC(COC(=O)c2cc3ccc(CN)nc3n2Cc2cc(NS(=O)(=O)Cc3ccccc3)cc3ccccc23)CCC1=O` (centres unmarked) [Compound 2.18], with at least 7.00.
